# Measured values as given in patent US20110020252A1, “METHOD OF LONG LASTING HUMAN SKIN TANNING” (priority 2010, published 2011).
# Experiments:
# [1] = Safety of Rifampin at 600 to 1200 mg daily; assay type: in vivo, human; conditions: 600 mg to 1200 mg as a daily dose
# Excerpt: Symptoms of overdose may include swelling of face or around eyes, itching over the entire body, orange or red discoloration of skin or eyes, nausea, vomiting, drowsiness, and loss of consciousness. If overdose is suspected, contact your local poison control center or emergency room immediately. One needs to take the prescribed amount for tanning to avoid any overdosing.
# It has one of the best safety records taken for such a long time. It can be safely used for tanning in the doses of 600 to 1200 mg (dose depending on the weight) day orally for 3-5 days or till one obtains the desired tan without any untoward effects.
# [2] = human, in vivo
# [3] = 600 mg to 1200, up to 6 months or more, tuberculosis treatment; cited from earlier work
# [4] = cited from earlier work
# human skin = assay: Skin tanning with oral Rifampin plus sun/UVR exposure (patient, volunteers, tanning booth users)
# hepatic enzyme = conditions: compared with Rifampin; cited from earlier work
# skin = conditions: cited from earlier work
smiles,measurement,setting,value
CO[C@H]1/C=C/O[C@@]2(C)Oc3c(C)c(O)c4c(O)c(c(/C=N/N5CCN(C)CC5)c(O)c4c3C2=O)NC(=O)/C(C)=C\C=C\[C@H](C)[C@H](O)[C@@H](C)[C@@H](O)[C@@H](C)[C@H](OC(C)=O)[C@@H]1C [Rifampin],overdose effects,[1],haven't noticed any overdose effects
same,time until urine and facial orange coloration disappears,[2],≤ 24 h
same,adverse effects,[3],without any serious adverse effect
same,"plasma levels, mean",[4]; 600 mg dose on an empty stomach,7000 ng/mL
same,effect of antacids on absorption,[4]; antacids,do not affect absorption
same,administered drug excreted unchanged through the urine,[4]; in vivo,about 7%
same,excretion into breast milk,[4]; in vivo,excreted into breast milk
same,fraction metabolized by the liver microsomal enzymes,[4]; in vivo,Approximately 85%
same,time after which almost the entire drug is deacetylated,[4]; in vivo,about 6 hours
same,"urinary elimination, share of the dose that is excreted",[4]; in vivo,about 30%
same,time to peak plasma concentrations,[4]; orally administered,1 to 2 h
same,peak blood concentration when taken with a meal,[4]; taken with a meal,36%
same,dose eliminated within 24 hours,[4]; within 24 hours,Approximately 50%
same,tanning effect by skin type,human skin; […],more pronounced in brown skinned
same,dandruff production,human skin; experimental test individuals using this method of tanning,less dandruff production
same,skin staining of tuberculosis patients,human skin; use for many months with exposure to Sun light,became much darkly stained
same,tanning result,"human skin; volunteers and tanning booth users, minimum UVR exposure",good natural looking long lasting tanning
CO[C@H]1/C=C/O[C@@]2(C)Oc3c(C)c(O)c4c(c3C2=O)C2=NC3(CCN(CC(C)C)CC3)NC2=C(NC(=O)/C(C)=C\C=C\[C@H](C)[C@H](O)[C@@H](C)[C@@H](O)[C@@H](C)[C@H](OC(C)=O)[C@@H]1C)C4=O [Rifabutin],hepatic enzyme induction,hepatic enzyme,less hepatic enzyme induction
O=C[C@H](O)[C@H](O)[C@H](O)CO [D-ribose],effect on wound surface,skin; applied directly to a wound,caused the surface to become brown
same,effect on tanning,skin; in water applied to the skin,showed no such effect on tanning
